The text below walks through data of US10077436B2, “Beta-glucosidase enzymes for increased biomass saccharification” (Edeniq, Inc., priority 2013, dated 2018).

As usually defined, the Ki is a measure of affinity in units of concentration, obtained from inhibition or displacement.

For the assay, the target named is T1, Aspergillus niger beta-glucosidase, wild type, yEdQ745-BG (CAB75696.1, SEQ ID NO:2) (Aspergillus niger, UniProt Q9P8F4).
T1 construct: strain yEdQ745
T1 sequence (Q9P8F4 20-860): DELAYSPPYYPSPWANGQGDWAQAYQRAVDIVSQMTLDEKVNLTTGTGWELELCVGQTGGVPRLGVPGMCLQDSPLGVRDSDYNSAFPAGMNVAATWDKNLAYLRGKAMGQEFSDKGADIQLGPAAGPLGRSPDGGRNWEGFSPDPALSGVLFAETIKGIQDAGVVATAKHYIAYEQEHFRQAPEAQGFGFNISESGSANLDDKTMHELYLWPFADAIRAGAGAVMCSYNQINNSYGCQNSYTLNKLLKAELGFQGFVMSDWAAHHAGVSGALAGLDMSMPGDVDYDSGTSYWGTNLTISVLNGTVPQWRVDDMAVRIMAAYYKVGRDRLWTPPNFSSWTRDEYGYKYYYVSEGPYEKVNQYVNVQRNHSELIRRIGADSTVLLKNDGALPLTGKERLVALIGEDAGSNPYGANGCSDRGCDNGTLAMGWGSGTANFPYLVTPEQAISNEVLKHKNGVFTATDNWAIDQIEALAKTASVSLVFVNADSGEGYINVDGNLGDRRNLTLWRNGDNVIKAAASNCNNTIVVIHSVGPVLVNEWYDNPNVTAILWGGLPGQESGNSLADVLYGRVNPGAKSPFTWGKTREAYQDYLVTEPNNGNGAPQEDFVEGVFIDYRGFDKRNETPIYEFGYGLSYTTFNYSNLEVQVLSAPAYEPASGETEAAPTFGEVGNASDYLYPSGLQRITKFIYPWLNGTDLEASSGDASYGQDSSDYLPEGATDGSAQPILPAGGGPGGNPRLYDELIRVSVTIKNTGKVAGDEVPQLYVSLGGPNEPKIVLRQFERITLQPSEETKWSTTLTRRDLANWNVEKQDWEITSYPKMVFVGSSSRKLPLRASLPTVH
Nature of the assay: BG kinetics, pNPG hydrolysis assay with glucose as competitive inhibitor, yEdQ745-BG. It counts as biochemical. From the text:
Accordingly, in some embodiments, the unmodified form of the beta-glucosidase is a wild-type or a naturally occurring beta-glucosidase, such as, for example, a fungal beta-glucosidase. The full nucleic acid and amino acid sequence for numerous fungal beta-glucosidases are available. The amino acid sequence of A. niger beta-glucosidase is provided as SEQ ID NO:2. Thus, in some embodiments, the unmodified beta-glucosidase is from an Aspergillus species. In some embodiments, the unmodified beta-glucosidase is from a Trichoderma species.
The beta-glucosidase (BG) gene from Aspergillus niger (Accession #CAB75696.1) was integrated into the TR3 yeast background at the T4U3 genomic site.
The BG-expressing strains were subsequently used in corn mash and corn stover simultaneous saccharification and fermentation (SSF) studies using flask scale and pilot plant fermentations. […]
BG activity assay using pNPG is one of the two commonly used standard assays to measure BG activity, which utilizes hydrolysis of p-nitrophenyl-β-D-glucopyranoside (pNPG) by BG into a yellow colored product, p-nitrophenol (pNP), that has a strong absorbance at 405 nm. […] The reaction was then terminated by adding 100 μL of 0.25 M sodium carbonate, and the amount of pNP produced was determined by measuring absorbance at 405 nm using a predetermined calibration curve. […]

`OC[C@H]1OC(O)[C@H](O)[C@@H](O)[C@@H]1O` (some centres unmarked) [glucose] came in with a Ki of 2130 ± 180 µM. Further, the Km/Ki (inhibitor influence, Km for pNPG / Ki for glucose, pH 5.0, 50° C.) is reported as 0.30.
